Assays:
[1] = target: T1, human δ opioid receptor (DOP) over-expressed in CHO cells (Homo sapiens, UniProt P41143); experiment: [35S]GTPγS binding assay, functional antagonism (Ke) vs DPDPE; assay type: biochemical; details: for Kb: [35S]GTPγS, agonist DPDPE, read-out: apparent affinity (Ke) of antagonists, DOP
T1 construct: host or cells: CHO cells; membrane homogenates
Description: (§1) All compounds were initially screened for intrinsic and antagonist activity at 10 μM in the [^35S]GTPγS binding assay at the human κ, and the μ, and δ opioid receptors over-expressed in CHO cells. These cell lines were kindly provided by Temple University (κ) and SRI International (μ and δ). Compounds identified as antagonist were characterized for functional antagonism (Ke) and selectivity by measuring the ability of the test compounds to inhibit stimulated [^35S]GTPγS binding produced by one of the selective agonists DAMGO (μ), DPDPE (δ), or U69,593 (κ). Agonist concentration-response curves were run in the presence or absence of a single concentration of test compound.
(§2) The test compounds were assayed in duplicate in 1.4-mL polypropylene tubes in a 96-well format. CHO membrane homogenates (20-40 µg protein) were incubated with a positive control or the test compound, 0.1 nM [^35S]GTP-γ-S and 1 μM GDP in 50 mM HEPES buffer (pH 7.4) at room temperature for 1 h, after which bound radioligand was separated from free radioligand via rapid vacuum filtration over GF-B filters with a Brandel Scientific (Gaithersburg, Md.) 96-well harvester. Bound radioactivity is determined using a TopCount 12-detector instrument (Packard Instruments) using standard scintillation counting techniques. Bound radioactivity is normalized to samples containing vehicle (basal binding). […] The Ke values were calculated using the formula Ke=[L]/DR−1, where [L] is the concentration of test compound, and DR is the ratio of agonist EC50 value in the presence or absence of test compound.

[2] = target: T2, human κ opioid receptor (KOP) over-expressed in CHO cells (Homo sapiens, UniProt P41145); details: from Hartung et al., cited from earlier work; for Ke at the KOP: J. Nat. Prod. 2014, 77, 311
T2 construct: host or cells: CHO cells; membrane homogenates
T2 sequence (P41145 whole entry): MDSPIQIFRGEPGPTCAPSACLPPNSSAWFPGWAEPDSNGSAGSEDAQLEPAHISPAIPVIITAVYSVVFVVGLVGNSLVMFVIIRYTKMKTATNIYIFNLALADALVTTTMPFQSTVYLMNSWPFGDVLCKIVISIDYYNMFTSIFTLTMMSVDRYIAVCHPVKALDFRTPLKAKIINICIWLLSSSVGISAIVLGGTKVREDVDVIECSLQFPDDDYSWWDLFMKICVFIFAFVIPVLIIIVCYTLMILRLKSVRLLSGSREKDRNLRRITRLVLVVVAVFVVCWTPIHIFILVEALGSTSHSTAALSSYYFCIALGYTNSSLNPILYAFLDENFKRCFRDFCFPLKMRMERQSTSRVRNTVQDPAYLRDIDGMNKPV

[3] = target: T3, human μ opioid receptor (MOP) over-expressed in CHO cells (Homo sapiens, UniProt P35372); experiment: [35S]GTPγS binding assay, functional antagonism (Ke) vs DAMGO; assay type: biochemical; details: agonist DAMGO, read-out: apparent affinity (Ke) of antagonists, MOP
T3 construct: host or cells: CHO cells; membrane homogenates
T3 sequence (P35372 whole entry): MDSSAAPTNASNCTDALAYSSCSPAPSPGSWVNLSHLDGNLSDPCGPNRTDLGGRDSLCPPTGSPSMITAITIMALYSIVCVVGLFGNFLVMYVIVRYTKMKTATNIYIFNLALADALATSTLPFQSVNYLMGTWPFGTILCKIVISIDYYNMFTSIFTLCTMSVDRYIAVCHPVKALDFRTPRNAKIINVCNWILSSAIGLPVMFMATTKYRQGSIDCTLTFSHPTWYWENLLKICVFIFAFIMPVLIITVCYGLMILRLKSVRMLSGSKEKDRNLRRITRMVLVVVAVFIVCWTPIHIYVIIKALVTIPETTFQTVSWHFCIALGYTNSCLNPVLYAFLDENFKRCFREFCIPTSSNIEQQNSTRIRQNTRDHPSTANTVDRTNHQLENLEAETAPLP
Description: as §1, §2

[4] = target: T2, human κ opioid receptor (KOP) over-expressed in CHO cells; experiment: [35S]GTPγS binding assay, functional antagonism (Ke) vs U69,593; assay type: biochemical; details: agonist U69,593, read-out: apparent affinity (Ke) of antagonists, KOP
Description: as §1, §2

[5] = test system: human κ, μ and δ opioid receptors over-expressed in CHO cells; experiment: [35S]GTPγS binding assay, screen for intrinsic agonist activity; assay type: biochemical; details: screened at 10 μM
Description: as §1
The test compounds were assayed in duplicate in 1.4-mL polypropylene tubes in a 96-well format. […] Bound radioactivity is determined using a TopCount 12-detector instrument (Packard Instruments) using standard scintillation counting techniques. Bound radioactivity is normalized to samples containing vehicle (basal binding). […] The Ke values were calculated using the formula Ke=[L]/DR−1, where [L] is the concentration of test compound, and DR is the ratio of agonist EC50 value in the presence or absence of test compound. […]

T1 sequence (P41143 whole entry): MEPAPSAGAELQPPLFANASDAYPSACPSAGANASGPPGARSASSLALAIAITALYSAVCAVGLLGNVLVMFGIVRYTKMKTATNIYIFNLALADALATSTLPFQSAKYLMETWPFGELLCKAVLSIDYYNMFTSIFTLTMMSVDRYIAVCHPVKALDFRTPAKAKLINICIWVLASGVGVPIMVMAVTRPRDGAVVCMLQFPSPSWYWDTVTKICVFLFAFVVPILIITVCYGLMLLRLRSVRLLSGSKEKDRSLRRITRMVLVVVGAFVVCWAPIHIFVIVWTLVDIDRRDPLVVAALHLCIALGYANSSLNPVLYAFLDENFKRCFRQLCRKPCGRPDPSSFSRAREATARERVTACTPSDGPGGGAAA

CC(C)=CCC/C(C)=C/Cc1c(O)cc(O)cc1/C=C/c1ccc(O)c(O)c1CC=C(C)C [Compound 1, pawhuskin A]
Kb [1]: 2900 nM
Ke at the KOP [2]: 0.20 µM
Kb [3]: 570000 nM
Kb [4]: 200 nM

COc1cc(/C=C/c2cc(O)c(O)c(CC=C(C)C)c2)c(C/C=C(\C)CCC=C(C)C)c(OC)c1 [Compound 3, 5-((E)-2-((E)-3,7-dimethylocta-2,6-dien-1-yl)-3,5-dimethoxystyryl)-3-(3-methylbut-2-en-1-yl)benzene-1,2-diol]
Kb [1]: > 10000 nM
Ke at the KOP [2]: 0.15 µM
δ/κ selectivity ([2]; J. Nat. Prod. 2014): > 67
μ/κ selectivity ([2]; J. Nat. Prod. 2014): > 67
Kb [3]: > 10000 nM
Kb [4]: 150 nM

COc1cc(/C=C/c2ccc(O)c(O)c2CC=C(C)C)c(C/C=C(\C)CCC=C(C)C)c(OC)c1 [Compound 4]
intrinsic agonist activity [5]: no agonist activity
Kb [1]: 25 nM
KOP/DOP selectivity ([1]; ratio of Ke values): > 400
MOP/DOP selectivity ([1]; ratio of Ke values): > 400
Kb [3]: > 10000 nM
Kb [4]: > 10000 nM

— patent US20170107173A1, “THERAPEUTIC COMPOUNDS AND METHODS” (UNIVERSITY OF IOWA RESEARCH FOUNDATION, priority 2015, published 2017)
